Measured values published in patent US20220323443A1, “COMBINATION THERAPY FOR CANCER TREATMENT” (TAKEDA PHARMACEUTICAL COMPANY LIMITED, priority 2019, published 2022).
Entries after “also recorded” stand apart in the source; their conditions may differ.

Columns and labels:
[1] = test system: repair of IR-induced DSBs in HeLa cells; assay: 53BP1 foci assay of irradiation-induced DNA double-strand breaks; assay type: cell-based, human
Method: Human cervical adenocarcinoma HeLa cells were treated with or without Compound 1 treatment at 300 nM, followed by irradiation (IR) treatment at 4 Gy using an X-ray irradiator (MBR-1520R-3, Hitachi Power Solutions Co., Ltd., Ibaraki). Eight or forty-eight hours after IR treatment, the cells were fixed with 4% paraformaldehyde for the following immunofluorescent experiments. Foci formation of 53BP1 was used as an index of IR-induced DSBs. After permeabilization, the cells were incubated with anti-53BP1 antibody (2 μg/ml) for 60 min at 37° C., and then incubated with Alexa-594-conjugated secondary antibody for 30 min at 37° C. Images were captured with an Axiovert 200M microscope (Carl Zeiss).

A20 (Lymphoma) = assay: In vivo combination study, syngeneic mouse tumor isograft model; settings: note to Table 9
[2] = test system: Twelve cancer cell lines (A549, BxPC3, Calu-1, COLO205, KYSE140, KYSE150, KYSE520, KYSE70, MIA PaCa-2, NCI-H292, PANC1, and RKO); assay: CRISPR-Cas9 knock-out screening for genes sensitizing to compound 1; assay type: cell-based; settings: hit genes: ES<0 and p-value <0.05, control vs low dose compound 1, in more than three cancer cell lines
Panc02 (Pancreatic) = assay: In vivo combination study, syngeneic mouse tumor isograft model; settings: note to Table 9
Method: (§1) To investigate in vivo antitumor activity of Compound 1 in combination with other agents, tests using Cell Derived Xenograft (CDX), Patient Derived Xenograft (PDX) and Syngeneic mouse tumor isograft model were conducted. Cells or Patient Derived Tumors were inoculated by one method of the following two methods (Method A and B) as shown Table 7.
(§2) Method A; Cells were maintained in either immune deficient nude mice or immune competent mice by subcutaneous inoculation of tumor cells at various concentrations into respected mice. Method B: Patient Derived Tumor s were maintained in nude mice by subcutaneous inoculation of tumor pieces (approx. 2×2×2 mm) into nude mice. Mice with tumor size of approximately 50 mm^3 (e.g., 40-75 mm^3) for syngeneic mouse studies or 200 mm^3 (e.g., 110-270 mm^3) for xenograft studies were randomly assigned to dose groups on the day (Day 0) before start date of dosing.
(§3) Compound 1 (crystalline form I) was suspended in 0.5 w/v % methylcellulose and administered orally to mice. Antibodies which administered in the experiment were described in Table 8.
(§4) Tumor size was measured by caliper and tumor volume was estimated using the equation V=(LW^2)/2, where L and W are tumor length and width, respectively and reported in cubic millimeters.
(§5) These values were compared across treatment groups to assess whether the differences in the trends over time were statistically significant. To compare pairs of treatment groups, the following mixed-effects linear regression model was fit to the data using the maximum likelihood method:
(§6) For synergy analyses, the observed differences in the log tumor values were used to calculate AUC values for each animal. In instances when an animal in a treatment group was removed from the study, the last observed tumor value was carried forward through all subsequent time points. The AUC for the control, or vehicle, group was calculated using the predicted values from the pairwise models described above. We defined a measure of synergy as follows:
(§7) where Ak and Bk are the k^th animal in the individual treatment groups and ABk is the k^th animal in combination treatment group. AUCcd is the model-predicted AUC for the control group and was treated as a constant with no variability. The standard error of the synergy score was calculated as the square root of the sum of squared standard errors across groups A, B, and AB. The degrees of freedom were estimated using the Welch-Satterthwaite equation. A hypothesis test was performed to determine if the synergy score differed from 0. P values were calculated by dividing the synergy score by its standard error and tested against a t-distribution (two-tailed) with the above-calculated degrees of freedom.
(§8) The effect was classified into four different categories. It was considered synergistic if the synergy score was less than 0 and additive if the synergy score wasn't statistically different from 0. If the synergy score was greater than zero, but the mean AUC for the combination was lower than the lowest mean AUC among the two single agent treatments, then the combination was sub-additive. If the synergy score was greater than zero, and the mean AUC for the combination was greater than the mean AUC for at least one of the single agent treatments, then the combination was antagonistic.

H22 (Hepatoma) = assay: as above; settings: note to Table 9; by note order: Anti-mCTLA-4 study in H22 (55 mm^3)
Method: as §1, §2, §3, §4, §5, §6, §7, §8

[3] = test system: J558 mouse plasmacytoma tumors; assay: as above; settings: note to Table 9
Method: as §1, §2, §3, §4, §5, §6, §7, §8

JC (Breast) = assay: as above; settings: note to Table 9
Method: as §1, §2, §3, §4, §5, §6, §7, §8

[4] = test system: CT26 Mouse syngeneic colon tumor model; assay: as above; settings: note to Table 9
[5] = test system: homologous recombination (HR) repair in 293T cells; assay: Homologous recombination (HR) repair assay, DR-GFP / I-SceI reporter, flow cytometry; assay type: cell-based, human; settings: 300 nM Compound 1, 72 hours after transfection
Method: The efficiency of homologous recombination (HR) was assessed using an I-SceI expression plasmid (I-SceI) and an I-SceI repair reporter plasmid (DR-GFP) composed of two differentially mutated GFP genes, one of which contained a unique I-SceI restriction site (FIG. 1A). The assay works through gene conversion repair of a double strand break caused by I-SceI digestion. DR-GFP plasmids repaired by homologous recombination express GFP. Human embryonic kidney 293T cells were transfected with either 5 μg of DR-GFP plus 10 μg of I-SceI in presence (300 nM) or absence of Compound 1. Seventy-two hours after transfection, the cells were fixed with 4% paraformaldehyde for 20 min at room temperature, and the number of GFP-expressing cells was assessed by flow cytometry (FIGS. 1B and 1C).

B16F10 (Melanoma) = assay: In vivo combination study, syngeneic mouse tumor isograft model; settings: note to Table 9

Cc1[nH]ncc1-c1cc2nc([C@@H]3CC4CCN3CC4)[nH]c(=O)c2s1 [Compound 1, 2-[(2S)-1-azabicyclo[2.2.2]oct-2-yl]-6-(3-methyl-1H-pyrazol-4-yl)thieno[3,2-d]pyrimidin-4(3H)-one]
repair of IR-induced DSBs ([1]; 300 nM Compound 1 + IR 4 Gy, HeLa cells): delays repair of IR-induced DSBs; also recorded: delays repair of irradiation induced double-strand breaks (DSBs)
53BP1 foci-positive cells (≥10 foci/cell) ([1]; co-treated with IR 4 Gy and Compound 1 300 nM, 48 h after IR treatment, HeLa): still observed with high frequency
CR per group (A20 (Lymphoma); by note order: Anti-mPD-1 study in A20 (61 mm^3)): 1
CR per group (A20 (Lymphoma); by note order: NKTR-214 + anti-mPD-1 study in A20 (61 mm^3)): 1
CR per group (A20 (Lymphoma); by note order: NKTR-214 study in A20 (61 mm^3)): 1
sensitivity of cancer cells with mutation or deletion of at least one sensitizing hit gene [2]: more sensitive
CR per group (Panc02 (Pancreatic); by note order: Anti-mPD-1 study in Panc02 (75 mm^3)): 0 CR in PD-1 group and 0 CR in Compound 1 group, and 0 CR in Compound 1/PD-1 combo group
CR per group (Panc02 (Pancreatic); by note order: Gemcitabine study in Panc02 (75 mm^3)): 0 CR in Gemcitabine group and 0 CR in Compound 1 group, and 0 CR in Compound 1/Gemcitabine combo group
CR per group (H22 (Hepatoma)): 0
CR per group ([3]; by note order: Anti-mCTLA-4 study in J558 (30 mm^3)): 2
CR per group ([3]; by note order: Anti-mPD-1 study in J558 (30 mm^3)): 2
CR per group ([3]; by note order: Anti-mPD-L1 study in J558 (30 mm^3)): 2
CR per group (JC (Breast); by note order: Anti-mCTLA-4 study in JC (60 mm^3)): 0 CR in CTLA-4 group and 0 CR in Compound 1 group, and 0 CR in Compound 1/CTLA-4 combo group
CR per group (JC (Breast); by note order: Anti-mPD-1 study in JC (60 mm^3)): 0 CR in PD-1 group and 0 CR in Compound 1 group, and 0 CR in Compound 1/PD-1 combo group
CR per group ([4]; by note order: Anti-mCTLA-4 study in CT26 (40 mm^3)): 0
CR per group ([4]; by note order: Anti-mCTLA-4 study in CT26 (50 mm^3)): 0
CR per group ([4]; by note order: Anti-mPD-1 study in CT26 (40 mm^3)): 0
CR per group ([4]; by note order: Anti-mPD-1 study in CT26 (50 mm^3)): 0
CR per group ([4]; by note order: Anti-mPD-1 study in CT26 (64 mm^3)): no CR
CR per group ([4]; by note order: NKTR-214 + anti-mPD-1 study in CT26 (64 mm^3)): no CR
CR per group ([4]; by note order: NKTR-214 study in CT26 (64 mm^3)): no CR
HR repair activity (GFP-expressing cells) [5]: suppresses HR repair activity
CR per group (B16F10 (Melanoma); by note order: Anti-mPD-1 study in B16F10 (67 mm^3)): 0 CR in PD-1 group and 0 CR in Compound 1 group, and 0 CR in Compound 1/PD-1 combo group
CR per group (B16F10 (Melanoma); by note order: NKTR-214 + anti-mPD-1 study in B16F10 (67 mm^3)): 0 CR in NKTR-214 + PD-1 group, and 0 CR in Compound 1 group, and 0 CR in Compound 1/NKTR-214/PD-1 triple combo group
CR per group (B16F10 (Melanoma); by note order: NKTR-214 study in B16F10 (67 mm^3)): no CR
